Data taken from US5663417A, “Carbocyclic sulfonamides” (Ono Pharmaceutical Co., Ltd., priority 1993, dated 1997).

Target: prostaglandin E2 receptor
Assay: inhibition of [^3 H]-PGE2 receptor binding in rat uterus membrane fraction
Settings: Table I; 5 nM [^3 H]-PGE2, rat uterus crude membrane fraction, pH 6.0, 1 hour at room temperature; read-out: IC50, inhibitory effects of PGE2 receptor binding in rat
Protocol: (i) The measurement of the inhibition of [^3 H]-PGE2 receptor binding
The standard assay mixture contained 5 nM [^3 H]-PGE2 (50 μl), test compounds (50 μl) and crude membrane fraction obtained from rat uterus (1.2 mg protein/ml, 100 μl) in a final volume of 200 μl (10 mM potassium phosphate pH 6.0, 0.1M NaCl (buffer A)). After incubation for 1 hour at room temperature, the reaction was stopped by the addition of 3 ml of ice-cold buffer A, after which the mixture was rapidly filtered through a Whatman GF/B glass filter. The radioactivity associated with the filter was measured in ACS II (Amarsham) by liquid scintillation counting. Percent inhibition of specific [^3 H]-PGE2 binding or IC50 value, the concentration required to compete with ^3 H-PGE2 receptor binding by 50% were calculated.

SMILES	IC50 [nM]
CC1(C)[C@H]2C[C@H](NS(=O)(=O)c3ccc(Br)cc3)[C@@H](C/C=C\CCCC(=O)O)[C@@H]1C2 [Example 2, 7-[(1S,2S,3S,5R)-3-(4-bromophenyl)sulfonylamino-6,6-dimethylbicyclo [3.1.1]heptan-2-yl]-5Z-heptenoic acid]	440
Cc1ccc(S(=O)(=O)N[C@H]2[C@H]3CC[C@H](C3)[C@@H]2C/C=C\CCCC(=O)O)cc1 [Example 4, 7-[(1R,2S,3S,4S)-3-tosylaminobicyclo[2.2.1]heptan-2-yl]-5Z-heptenoic acid]	3400
O=C(O)CCC/C=C\C1CC2CCC1C(NS(=O)(=O)c1ccc(Br)cc1)C2 (stereo not shown) [U.S. Pat. No. 5168101 1 (a)]	770
Cc1ccc(S(=O)(=O)NCC2C3C=CC(C3)C2C=CCCCC(=O)O)cc1 (stereo not shown) [U.S. Pat. No. 5168101 1 (aa)]	2000
O=C(O)CCC/C=C\C1CC2CC(NS(=O)(=O)c3ccc(Br)cc3)C1C2 (stereo not shown) [U.S. Pat. No. 5168101 1 (b)]	3500
O=C(O)CCCC=CC1C2C=CC(C2)C1CNS(=O)(=O)c1ccc(Br)cc1 (stereo not shown) [U.S. Pat. No. 5168101 1 (bb)]	820
O=C(O)CCC/C=C\C1CC2CC(NS(=O)(=O)c3ccc(Br)cc3)C1C2 (stereo not shown) [U.S. Pat. No. 5168101 1 (c)]	500
O=C(O)CCCC=CC1C2CCC(C2)C1CNS(=O)(=O)c1ccc(Br)cc1 (stereo not shown) [U.S. Pat. No. 5168101 1 (cc)]	390
O=C(O)CCC/C=C\[C@@H]1CC[C@H](NS(=O)(=O)c2ccc(Br)cc2)C1 [U.S. Pat. No. 5168101 1 (i)]	2400
Cc1ccc(S(=O)(=O)NCC2C3CCC(C3)C2/C=C\CCCC(=O)O)cc1 (stereo not shown) [U.S. Pat. No. 5168101 1 (p)]	6400
O=C(O)CCC/C=C\C1CCCCC1CNS(=O)(=O)c1ccc(Br)cc1 (stereo not shown) [U.S. Pat. No. 5168101 1 (t)]	1200
Cc1ccc(S(=O)(=O)NCC2C3CCC(C3)C2C=CCCCC(=O)O)cc1 (stereo not shown) [U.S. Pat. No. 5168101 1 (x)]	1600
O=C(O)CCC/C=C\[C@@H]1[C@H]2CC[C@H](C2)[C@H]1CNS(=O)(=O)c1ccc(Br)cc1 [U.S. Pat. No. 5168101 1 (y), 6-[(1S, 2R, 3R, 4R)-3-(4-bromophenylsulfonylaminomethyl)bicyclo[2.2.1]heptan-2-yl]-5Z-hexenoic acid]	620

Same assay, conditions: Table II; 5 nM [^3 H]-PGE2, rat uterus crude membrane fraction, pH 6.0, 1 hour at room temperature; read-out: IC50, inhibitory effects of PGE2 receptor binding in rat

SMILES	IC50 [nM]
CC1(C)[C@H]2C[C@H](NS(=O)(=O)/C=C/c3ccc(F)cc3)[C@@H](C/C=C\CCCC(=O)O)[C@@H]1C2 [6 (2), 7-[(1S, 2S, 3S, 5R)-3-[2-(4-fluorophenyl)vinylsulfonylamino]-6,6-dimethylbicyclo[3.1.1]heptan-2-yl]-5Z-heptenoic acid]	3.6
CC1(C)[C@H]2C[C@H](NS(=O)(=O)/C=C/c3ccccc3)[C@@H](C/C=C\CCCC(=O)O)[C@@H]1C2 [6 (12), 7-[(1S, 2S, 3S, 5R)-3-(2-phenylvinylsulfonylamino)-6,6-dimethylbicyclo[3.1.1]heptan-2-yl]-5Z-heptenoic acid]	< 10
CCCC/C=C/S(=O)(=O)N[C@H]1C[C@H]2C[C@@H]([C@@H]1C/C=C\CCCC(=O)O)C2(C)C [6 (14)]	800
O=C(O)CCC/C=C\[C@@H]1[C@H]2CC[C@H](C2)[C@H]1CNS(=O)(=O)/C=C/c1ccccc1 [6 (18), 6-[(1S, 2S, 3R, 4R)-3-(2-phenylvinylsulfonylaminomethyl)bicyclo[2.2.1]heptan-2-yl]-5Z-hexenoic acid]	17
O=C(O)CCC/C=C\[C@H]1CC[C@@H](NS(=O)(=O)/C=C/c2ccccc2)C1 [6 (22), 6-[(1S, 3R)-3-(2-phenylvinylsulfonyl-amino)cyclopentyl]-5Z-hexenoic]	1800
CC1(C)[C@H]2C[C@H](NS(=O)(=O)/C=C/c3ccccc3)[C@@H](C/C=C/CCCC(=O)O)[C@@H]1C2 [6 (26), 7-[(1S, 2S, 3S, 5R)-3-(2-phenylvinylsulfonylamino)-6,6-dimethylbicyclo [3.1.1]heptan-2-yl]-5E-heptenoic acid]	38
CC1(C)[C@H]2C[C@H](NS(=O)(=O)C=C(c3ccccc3)c3ccccc3)[C@@H](C/C=C\CCCC(=O)O)[C@@H]1C2 [Example 9, 7-[(1S,2S,3S,5R)-3-(2,2-diphenylvinylsulfonylamino)-6,6-dimethylbicyclo[3.1.1]heptan-2-yl]-5Z-heptenoic acid]	260

Tested on: contraction of rat uterus induced by PGE2
Assay: inhibitory effects of compounds on contraction of rat uterus induced by PGE2
Design: species or system rat (Sprague Dawley)
Settings: contraction induced by 0.3 μM PGE2; isolated pseudo pregnant rat uterus strips, 28° C.; compound concentration not given
Protocol: (ii) The inhibitory effects of compounds on contraction of rat uterus induced by PGE2
Pseudo pregnant rat uterus (Sprague Dawley, 200-300 g, induced by oestradiol […] s.c. 18-24 hours before experiment) was isolated and longitudinal strips of 1-1.5 cm were set up in Locke-Ringer solution containing low Ca^2+, aerated with mixed gas (oxygen 95%+carbon dioxide 5%) at 28° C.

SMILES	inhibition of the contraction of rat uterus induced by PGE2
CC1(C)[C@H]2C[C@H](NS(=O)(=O)/C=C/c3ccccc3)[C@@H](C/C=C\CCCC(=O)O)[C@@H]1C2 [6 (12), 7-[(1S, 2S, 3S, 5R)-3-(2-phenylvinylsulfonylamino)-6,6-dimethylbicyclo[3.1.1]heptan-2-yl]-5Z-heptenoic acid]	completely inhibited

Tested on: not listed separately
Assay: acute toxicity (LD50) in mouse by oral administration
Settings: in vivo
Protocol: For example, the acute toxicity (LD50) in mouse of 6-[(1S, 2R, 3R, 4R)-3-(4-bromophenylsulfonylaminomethyl)bicyclo[2.2.1]heptan-2-yl]-5Z-hexenoic acid (it is described as example 1(y) in specification of the U.S. Pat. No. 5,168,101.) was more than 300 mg/kg by oral administration.

SMILES	LD50 [mg/kg]
O=C(O)CCC/C=C\[C@@H]1[C@H]2CC[C@H](C2)[C@H]1CNS(=O)(=O)c1ccc(Br)cc1 [U.S. Pat. No. 5168101 1 (y), 6-[(1S, 2R, 3R, 4R)-3-(4-bromophenylsulfonylaminomethyl)bicyclo[2.2.1]heptan-2-yl]-5Z-hexenoic acid]	> 300
